# Data published in patent publication US10294248B2, “Beta-lactamase inhibitors” (VenatoRx Pharmaceuticals, Inc., priority 2013, dated 2019).
# Legend:
# [1] = test system: E. coli ESBL4 expressing CTX-M-15; test: Broth microdilution MIC, E. coli ESBL4 CTX-M-15; format: cell-based; conditions: fixed 4 μg/mL ceftazidime; CAMHB, 16-20 hours at 37° C.
# In short: (§1)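 Visual MIC readout follows 16-20 h incubation at 37° C. Final compound range spans 32 down to 0.25 μg/ml in two-fold steps, each well also carrying a β-lactam at a static 4 μg/ml, with inoculation done by the CLSI microdilution method in cation-adjusted Mueller Hinton broth.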
# [2] = target: T1, OXA-1 β-lactamase (Class D oxacillinase) (Escherichia coli, UniProt P13661); test: β-Lactamase inhibition, OXA-1; format: biochemical; conditions: nitrocefin 100 μM, 486 nm; 15 min preincubation at 37° C., PBS pH 7.4
# T1 construct: made in house; host or cells: E. coli BL21(DE3)
# In short: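 Compounds are mixed with purified, untagged recombinant β-lactamase and held 15 min at 37 °C. Substrate is then added: nitrocefin (100 μM final) for OXA-1, imipenem for KPC-2, cefotaxime for SHV-5. Absorbance is followed immediately, and percent inhibition per concentration gives the IC50.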
# [3] = test system: E. cloacae 144200 expressing Class C P99 AmpC; test: Broth microdilution MIC, E. cloacae 144200 p99 AmpC; format: cell-based; conditions: fixed 4 μg/mL ceftazidime; CAMHB, 16-20 hours at 37° C.
# In short: as §1
# [4] = test system: K. pneumoniae A-1797 expressing KPC-2 and VIM-4; test: Broth microdilution MIC, K. pneumoniae A-1797 KPC-2/VIM-4; format: cell-based; conditions: fixed 4 μg/mL meropenem; CAMHB, 16-20 hours at 37° C.
# In short: as §1
# [5] = target: T2, SHV-5 β-lactamase (Class A ESBL) (Klebsiella pneumoniae, UniProt P0A3M1); test: β-Lactamase inhibition, SHV-5; format: biochemical
# T2 construct: made in house; host or cells: E. coli BL21(DE3)
# In short: (§2)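 Untagged enzyme from E. coli BL21(DE3), purified by Capto S then Superdex 75; 15 min 37 °C preincubation with inhibitor; KPC-2 read with imipenem at 300 nm, SHV-5 with cefotaxime at 260 nm, OXA-1 with nitrocefin 100 μM final at 486 nm; 10 min kinetic read; IC50 vs uninhibited wells.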
# [6] = target: T3, p99 AmpC β-lactamase (Class C) (Enterobacter cloacae, UniProt P05364); test: β-Lactamase inhibition, p99 AmpC; format: biochemical
# T3 construct: made in house; host or cells: E. coli BL21(DE3)
# [7] = target: T4, KPC-2 β-lactamase (Class A carbapenemase) (Klebsiella pneumoniae, UniProt Q9F663); test: β-Lactamase inhibition, KPC-2; format: biochemical; conditions: imipenem substrate, 300 nm; 15 min preincubation at 37° C., PBS pH 7.4
# T4 construct: made in house; host or cells: E. coli BL21(DE3)
# In short: as §2
# [8] = target: T5, VIM-2 metallo-β-lactamase (Class B) (Pseudomonas aeruginosa, UniProt Q9K2N0); test: β-Lactamase inhibition, VIM-2; format: biochemical; conditions: nitrocefin 100 μM, 486 nm; 15 min preincubation at 37° C., PBS pH 7.4
# T5 construct: made in house; host or cells: E. coli BL21(DE3)
# In short: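 Metallo-β-lactamase VIM-2 activity was tracked spectrophotometrically at 486 nm with 100 μM nitrocefin over 10 min, following 15 min preincubation with compound at 37 °C; inhibition was calculated per concentration.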
# [9] = test system: P. aeruginosa Ps296 expressing VIM-2; test: Broth microdilution MIC, P. aeruginosa Ps296 VIM-2; format: cell-based; conditions: fixed 4 μg/mL meropenem; CAMHB, 16-20 hours at 37° C.
# In short: as §1
# [10] = test system: S. aureus MSSA-7 producing penicillinase PC-1; test: Broth microdilution MIC, S. aureus MSSA-7 PC-1; format: cell-based; conditions: fixed 4 μg/mL piperacillin; CAMHB, 16-20 hours at 37° C.
# In short: as §1
# [11] = test system: K. pneumoniae 156319 expressing KPC-3; test: Broth microdilution MIC, K. pneumoniae 156319 KPC-3; format: cell-based; conditions: fixed 4 μg/mL meropenem; CAMHB, 16-20 hours at 37° C.
# In short: as §1
# T3 sequence (P05364 21-381): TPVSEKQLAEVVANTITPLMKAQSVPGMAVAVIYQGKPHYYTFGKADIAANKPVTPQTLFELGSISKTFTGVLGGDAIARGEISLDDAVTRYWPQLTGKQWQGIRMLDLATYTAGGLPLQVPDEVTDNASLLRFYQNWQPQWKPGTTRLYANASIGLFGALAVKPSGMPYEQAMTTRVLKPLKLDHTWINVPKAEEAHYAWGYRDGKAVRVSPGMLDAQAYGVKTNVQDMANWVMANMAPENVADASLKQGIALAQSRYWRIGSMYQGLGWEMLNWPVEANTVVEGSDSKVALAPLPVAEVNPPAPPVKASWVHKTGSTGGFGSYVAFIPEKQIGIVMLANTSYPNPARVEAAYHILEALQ
# T2 sequence (P0A3M1 22-286): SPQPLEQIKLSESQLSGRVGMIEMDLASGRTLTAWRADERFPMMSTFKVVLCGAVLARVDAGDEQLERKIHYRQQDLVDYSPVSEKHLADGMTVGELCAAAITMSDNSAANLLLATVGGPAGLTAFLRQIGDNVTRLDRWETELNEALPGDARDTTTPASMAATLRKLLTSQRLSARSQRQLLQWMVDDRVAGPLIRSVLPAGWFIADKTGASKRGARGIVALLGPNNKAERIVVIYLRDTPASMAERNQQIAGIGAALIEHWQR
# T4 sequence (Q9F663 25-293, looked up): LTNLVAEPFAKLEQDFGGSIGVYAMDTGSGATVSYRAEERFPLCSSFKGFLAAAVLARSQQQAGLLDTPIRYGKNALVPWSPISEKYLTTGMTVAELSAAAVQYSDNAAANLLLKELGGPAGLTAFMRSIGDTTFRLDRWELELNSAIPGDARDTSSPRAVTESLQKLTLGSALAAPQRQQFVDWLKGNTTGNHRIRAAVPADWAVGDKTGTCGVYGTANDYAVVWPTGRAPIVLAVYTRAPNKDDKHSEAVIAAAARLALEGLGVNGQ
# T1 sequence (P13661 26-276): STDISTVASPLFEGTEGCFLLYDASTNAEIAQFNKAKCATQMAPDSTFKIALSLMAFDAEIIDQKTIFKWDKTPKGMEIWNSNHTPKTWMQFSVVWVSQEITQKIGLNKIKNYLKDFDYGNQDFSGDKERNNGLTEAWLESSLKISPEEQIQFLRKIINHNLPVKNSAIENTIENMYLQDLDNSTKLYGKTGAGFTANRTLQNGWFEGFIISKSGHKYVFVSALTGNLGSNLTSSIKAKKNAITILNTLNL
SMILES,"MIC of example compound in presence of fixed β-lactam: Fixed CAZ, E. coli ESBL4 CTX-M-15 [1]",IC50 [2],"MIC of example compound in presence of fixed β-lactam: Fixed CAZ, E. cl. 144200 p99 AmpC [3]","MIC of example compound in presence of fixed β-lactam: Fixed Mero, K. P. A-1797 KPC-2 VIM-4 [4]",IC50 [5],IC50 [6],IC50 [7],IC50 [8],"MIC of example compound in presence of fixed β-lactam: Fixed Mero, P. aerug. Ps296 VIM-2 [9]","MIC of example compound in presence of fixed β-lactam: Fixed Pip, S. aureus MSSA-7 PC-1 [10]","MIC of example compound in presence of fixed β-lactam: Fixed Mero, K. P. 156319 KPC-3 [11]"
"O=C(CNC1CCNCC1)N[C@H]1Cc2cccc(C(=O)O)c2OB1O [Example 40, 2-Hydroxy-3-[2-(piperidin-4-ylamino)-acetylamino]-3,4-dihydro-2H-benzo[e][1,2]oxaborinine-8-carboxylic acid]",C (the MIC in the presence of <4 μg/mL of a β-lactamase inhibitor),< 0.1 µM,C (the MIC in the presence of <4 μg/mL of a β-lactamase inhibitor),B (the MIC in the presence of between 8 and 32 μg/mL of a β-lactamase inhibitor),< 0.1 µM,< 0.1 µM,0.1 to 1 µM,0.1 to 1 µM,C (the MIC in the presence of <4 μg/mL of a β-lactamase inhibitor),C (the MIC in the presence of <4 μg/mL of a β-lactamase inhibitor),B (the MIC in the presence of between 8 and 32 μg/mL of a β-lactamase inhibitor)
"NCCN1CCC(CC(=O)N[C@H]2Cc3cccc(C(=O)O)c3OB2O)CC1 [Example 41, 3-{2-[1-(2-Amino-ethyl)-piperidin-4-yl]-acetylamino}-2-hydroxy-3,4-dihydro-2H-benzo[e][1,2]oxaborinine-8-carboxylic acid]",C (the MIC in the presence of <4 μg/mL of a β-lactamase inhibitor),< 0.1 µM,C (the MIC in the presence of <4 μg/mL of a β-lactamase inhibitor),C (the MIC in the presence of <4 μg/mL of a β-lactamase inhibitor),< 0.1 µM,< 0.1 µM,< 0.1 µM,0.1 to 1 µM,C (the MIC in the presence of <4 μg/mL of a β-lactamase inhibitor),C (the MIC in the presence of <4 μg/mL of a β-lactamase inhibitor),C (the MIC in the presence of <4 μg/mL of a β-lactamase inhibitor)
"CN(CC(=O)N[C@H]1Cc2cccc(C(=O)O)c2OB1O)C1CCNCC1 [Example 43, 2-Hydroxy-3-[2-(methyl-piperidin-4-yl-amino)-acetylamino]-3,4-dihydro-2H-benzo[e][1,2]oxaborinine-8-carboxylic acid]",C (the MIC in the presence of <4 μg/mL of a β-lactamase inhibitor),< 0.1 µM,C (the MIC in the presence of <4 μg/mL of a β-lactamase inhibitor),C (the MIC in the presence of <4 μg/mL of a β-lactamase inhibitor),< 0.1 µM,< 0.1 µM,< 0.1 µM,0.1 to 1 µM,C (the MIC in the presence of <4 μg/mL of a β-lactamase inhibitor),C (the MIC in the presence of <4 μg/mL of a β-lactamase inhibitor),C (the MIC in the presence of <4 μg/mL of a β-lactamase inhibitor)
"O=C(O)c1cccc2c1OB(O)[C@@H](NC(=O)C1CCNCC1)C2 [Example 44, 2-Hydroxy-3-[(piperidine-4-carbonyl)-amino]-3,4-dihydro-2H-benzo[e][1,2]oxaborinine-8-carboxylic acid]",C (the MIC in the presence of <4 μg/mL of a β-lactamase inhibitor),< 0.1 µM,C (the MIC in the presence of <4 μg/mL of a β-lactamase inhibitor),A (an MIC of the fixed β-lactam antibiotic in the presence of >32 μg/mL of a β-lactamase inhibitor),< 0.1 µM,< 0.1 µM,< 0.1 µM,10 to 100 µM,A (an MIC of the fixed β-lactam antibiotic in the presence of >32 μg/mL of a β-lactamase inhibitor),C (the MIC in the presence of <4 μg/mL of a β-lactamase inhibitor),C (the MIC in the presence of <4 μg/mL of a β-lactamase inhibitor)
"CN1CCC(CC(=O)N[C@H]2Cc3cccc(C(=O)O)c3OB2O)CC1 [Example 45, 2-Hydroxy-3-[2-(1-methyl-piperidin-4-yl)-acetylamino]-3,4-dihydro-2H-benzo[e][1,2]oxaborinine-8-carboxylic acid]",C (the MIC in the presence of <4 μg/mL of a β-lactamase inhibitor),0.1 to 1 µM,C (the MIC in the presence of <4 μg/mL of a β-lactamase inhibitor),C (the MIC in the presence of <4 μg/mL of a β-lactamase inhibitor),< 0.1 µM,< 0.1 µM,< 0.1 µM,0.1 to 1 µM,C (the MIC in the presence of <4 μg/mL of a β-lactamase inhibitor),B (the MIC in the presence of between 8 and 32 μg/mL of a β-lactamase inhibitor),C (the MIC in the presence of <4 μg/mL of a β-lactamase inhibitor)
"O=C(O)c1cccc2c1OB(O)[C@@H](NC(=O)C1CNC1)C2 [Example 46, (R)-3-(azetidine-3-carboxamido)-2-hydroxy-3,4-dihydro-2H-benzo[e][1,2]oxaborinine-8-carboxylic acid]",C (the MIC in the presence of <4 μg/mL of a β-lactamase inhibitor),0.1 to 1 µM,C (the MIC in the presence of <4 μg/mL of a β-lactamase inhibitor),A (an MIC of the fixed β-lactam antibiotic in the presence of >32 μg/mL of a β-lactamase inhibitor),< 0.1 µM,< 0.1 µM,0.1 to 1 µM,1 to 10 µM,A (an MIC of the fixed β-lactam antibiotic in the presence of >32 μg/mL of a β-lactamase inhibitor),C (the MIC in the presence of <4 μg/mL of a β-lactamase inhibitor),B (the MIC in the presence of between 8 and 32 μg/mL of a β-lactamase inhibitor)
"CN(C)c1ccc(NC(=O)N2CC(C(=O)N[C@H]3Cc4cccc(C(=O)O)c4OB3O)C2)cc1 [Example 47, (R)-3-(1-(4-(dimethylamino)phenylcarbamoyl)azetidine-3-carboxamido)-2-hydroxy-3,4-dihydro-2H-benzo[e][1,2]oxaborinine-8-carboxylic acid]",C (the MIC in the presence of <4 μg/mL of a β-lactamase inhibitor),0.1 to 1 µM,C (the MIC in the presence of <4 μg/mL of a β-lactamase inhibitor),B (the MIC in the presence of between 8 and 32 μg/mL of a β-lactamase inhibitor),< 0.1 µM,< 0.1 µM,< 0.1 µM,0.1 to 1 µM,C (the MIC in the presence of <4 μg/mL of a β-lactamase inhibitor),B (the MIC in the presence of between 8 and 32 μg/mL of a β-lactamase inhibitor),C (the MIC in the presence of <4 μg/mL of a β-lactamase inhibitor)
